Experimental data from patent US8435744B2 (priority 2005, dated 2013).
pIC50: −log10 of the molar value. Where two headings read alike, the source gives them in different places.

Assays:
[1] = molecular target: PrP^Sc content in the cells (Mus musculus, UniProt P04925); settings: read-out: IC50 (concentration for which 50% of the PrP^Sc content in the cells is inhibited); cited from earlier work
[2] = molecular target: PrP^Sc from infected N2a58/22L cells (Mus musculus, UniProt P04925); type: cell-based, murine
[3] = molecular target: PrP^C from uninfected N2a58 cells (Mus musculus, UniProt P04925); type: cell-based, murine; settings: uninfected cells, 1 to 10 μM, FIG. 3
[4] = prolonged incubation up to 14 days, 5 and 20 μM, FIG. 4

PrP^Sc from infected N2a58/22L cells, sequence (P04925 23-230 limits assumed): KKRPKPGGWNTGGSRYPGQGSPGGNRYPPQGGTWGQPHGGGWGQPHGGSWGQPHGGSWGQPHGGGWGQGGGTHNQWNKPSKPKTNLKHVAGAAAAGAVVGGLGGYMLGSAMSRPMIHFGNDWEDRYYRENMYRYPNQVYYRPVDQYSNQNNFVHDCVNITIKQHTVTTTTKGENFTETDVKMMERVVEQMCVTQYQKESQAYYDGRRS
PrP^Sc content in the cells, sequence (P04925 23-230 limits assumed): as above
PrP^C from uninfected N2a58 cells, sequence (P04925 23-230 limits assumed): as above

N#Cc1c(N)nc(Sc2ccccc2N)c(C#N)c1-c1ccco1 [2-amino-6-[(2-aminophenyl)thio]-4-(2-furyl)pyridine-3,5-dicarbonitrile]
pIC50 [1]: ~4.82

CSc1nccc(-c2ccc(Br)s2)n1 [compound A, 4-(5-bromo-2-thienyl)-2-(methylthio)pyrimidine]
time at which the state of equilibrium of amplified oligomeric forms is reached ([2]; 5 μM): 11 days
time at which the state of equilibrium of amplified oligomeric forms is reached ([2]; 20 μM): 3 days
increase in the signal on the oligomeric forms compared with an untreated control ([2]; 20 μM, N2a58/22L cells, immunoblot after PK): approximately 90 fold
effect on the amount of PrP^Sc in the infected cells ([2]; infected cells, immunoblotting after proteinase K, FIGS. 1 and 2): notably increases the amount of PrP^Sc
appearance of oligomeric forms of greater size than those observed over 3 days [2, 4]: does not induce the appearance of oligomeric forms having a size greater
depletion of monomeric form PrP^Sc27-30 to the benefit of oligomeric forms around 50-60 kDa [2, 4]: No depletion
oligomerization of PrP^C in the cells [3]: does not increase the oligomerization of PrP^C

COc1ccc(S(=O)(=O)NNC(=O)c2ccc(Cn3cnc(Cl)c3Cl)o2)cc1 [N′-1-({5-[(4,5-dichloro-1H-imidazol-1-yl)methyl]-2-furyl}carbonyl)-4-methoxybenzene-1-sulfonohydrazide]
pIC50 [1]: ~4.82

Nc1nccc(-c2ccc(-c3cccs3)s2)n1 [compound B, 4-(5-thienyl-2-thienyl)-2-(amino)-pyrimidine]
amount of oligomeric forms observed compared with compound A ([2]; 14 days, 20 μM, FIG. 6): much greater than for the compound A
amount of oligomeric forms of PrP^Sc at 5 μM versus higher concentrations ([2]; N2a58/22L cells, 3 days, 5 to 20 μM): identical to that observed for the concentration of 10 or 20 μM
amplification capacity, comparative kinetics between compounds B and A ([2]; incubation period of 14 days): greater amplification capacity
